According to US8329416B2, “Stabilized standards for busulfan immunoassay” (Saladax Biomedical Inc., priority 2008, dated 2012):
Read-outs that look alike come from different tables or passages of the source. Each block holds one molecule with its values, some of them ahead of it.

Key:
[1] = stability tests of amide of formula II standards in solution; format: physicochemical; settings: for time stable: solutions 590 ng/ml to 4720 ng/ml
antibody to busulfan = test: direct competitive ELISA for busulfan (busulfan-HRP conjugate, antibody-coated plate); format: binding
Experimental: For the purpose of determining amide of formula II equivalents to busulfan of formula I and assaying busulfan with the amide standards by Enzyme-Linked Immunosorbent Assay (ELISA) method, polystyrene microtiter plates optimized for protein binding and containing 96 well per plate were used. Each well was coated with an antibody to busulfan produced as described in U.S. Pat. No. 7,238,024 Example 7, by adding 100 μL of antibody at 7.5 μg/mL in 0.05M sodium bicarbonate, pH=9.6 and then were blocked with 400 μL of 5% sucrose, 0.2% sodium caseinate solution for 30 minutes at room temperature. After removal of the post-coat solution the plates dried at 37° C. overnight.
The cross-reactivity of the amide was determined in a direct competitive Enzyme-Linked Immunosorbent Assay (ELISA) for busulfan. This method for measuring busulfan concentrations was performed with the microtiter plates that were sensitized with busulfan antibody described in Example 3. The amide stock solution at 6 mg/mL DMF was serially diluted 5000 ng/mL and 500 ng/mL in a buffer comprising 0.02 M sodium phosphate, 0.15 M NaCl, 0.1% BSA, 0.01% Thimerosal, pH 7.2. To perform the assay 30 μL of busulfan standards from Example 1, and 30 μL of amide of formula II dilutions were pre-diluted in a 96-well plate by the addition of 180 μL of sample pre-dilution buffer consisting of 0.02 M sodium phosphate, 0.15 M NaCl, 0.5% Dextran Sulfate, 0.01% Thimerosal, pH 7.2. 50 μL of all prediluted samples were added to the antibody coated microtiter plate of Example 3. After addition of the samples 50 μL of a busulfan-HRP conjugate at 100 ng/mL in a buffer comprising to 0.02 M sodium phosphate, 0.15 M NaCl, 0.2% BSA, 0.1% ANS (8-anilino-1-naphthalene sulfonic acid), 15 ppm ProClin® Preservative 300 was added. During the following 10 minute incubation (R.T., with shaking) there is a competition between sample (busulfan or amide) and busulfan-HRP for binding with the antibody in the well. Following this incubation the wells of the plate were washed three times with 0.02 M TRIS, 0.9% NaCl, 0.5% polyethylene glycol sorbitan monooleate TWEEN® 80 and 0.001% Thimerosal, pH 7.8 to remove any material that was not bound. To detect the amount of busulfan-HRP bound to the busulfan antibody in the wells, 100 μL of TMB (TMB Liquid Substrate) a substrate for HRP was added. To develop a measurable color in the wells there was a 10 second incubation (R.T., with shaking). Following the incubation 50 μL of stop solution comprising 1.5% sodium fluoride in di H2O was added to each well to stop the color development and after 10 seconds of shaking the absorbance was determined at 650 nm with a 96-well plate reader. The amount of busulfan-HRP in a well was proportional to the absorbance measured and inversely proportional to the amount of busulfan of formulated or amide of formulated in the sample. The absorbance of the color in the wells containing busulfan was compared to that with no busulfan analyte and a standard curve was generated. […] The cross-reactivity was used to determine the concentration of amide necessary to produce a calibration curve equivalent to that of busulfan (Example 6).
Using the busulfan antibody plates (Example 3) in a direct competitive Enzyme-Linked Immunosorbent Assay (ELISA) for busulfan described in Example 4, the GC-MS verified busulfan calibrators (Example 1) were used to generate a curve from 75 ng/mL to 2000 ng/mL and the amide calibrators were read off this standard curve as unknown samples. […] The X axis represents the verified busulfan concentration and the Y axis is the amide standards expressed as busulfan equivalence factor (amide concentration value x 0.107=busulfan equivalence factor e.g. 1410 ng/mL amide x 0.107=150 ng/mL busulfan equivalence).

[2] = tested on: antibodies specific for busulfan; test: busulfan immunoassay of U.S. Pat. No. 7,148,024; format: binding; settings: across the entire dose response curve
Excerpt: In accordance with a preferred embodiment of this invention, a competitive assay is provided utilizing the reagents and procedure disclosed in U.S. Pat. No. 7,148,024, whose disclosure is incorporated by reference In this preferred procedure, the preferred procedure as set forth in U.S. Pat. No. 7,148,024, utilized in its method antibodies produced from conjugates of an immunogenic polyamine polymer with a compound of the formula III-A:
[drawing 4] • wherein A′ is lower alkylene or lower alkenylene; • X′, Y, X, p and z are as above or mixtures thereof.
The fact that known concentrations of the amide of formula II can be calibrated with known concentrations of busulfan by means of a calibration assay can be seen from FIG. 3. […] These measured results are plotted against their relative concentrations. […] The amount or concentration of busulfan can be determined from the measured amount or concentration standards containing the amide of formula II by multiplying the measured results obtained from these amide standards by previously determined calibration factor which in the case of FIG. 3 is 0.107. In this manner one obtains the amount or concentration of busulfan in the samples based on the measured results with respect to the amide.

[3] = decomposition of busulfan standards in aqueous solution over time; format: physicochemical; settings: FIG. 1
Experimental: In FIG. 1 a plurality of aqueous solutions of busulfan having varying concentrations of 100 ng/ml, 600 ng/ml, and 1200 ng/ml are incubated at room temperature. […] At room temperature for 5 days, more than 60% of the busulfan is decomposed.

[4] = cited from earlier work
[5] = tested on: antibodies specific for busulfan; settings: antibodies from immunogens of formulae III-A and III-B; cited from earlier work

- time stable ([1]; 4° C., FIG. 2): at least 4 weeks
- time stable ([1]; 45° C., FIG. 2): at least 4 weeks
- decomposition on storage ([1]; stored at 4° C. and 45° C. for at least 4 weeks, FIG. 2): no decomposition
- storage of amide solutions without significant deterioration ([1]; without any special precautions): more than one year
Compound: CS(=O)(=O)NCCCCNS(C)(=O)=O [amide of formula II]
- calibration factor (busulfan equivalence factor) (antibody to busulfan; FIG. 3, amide concentration x factor = busulfan equivalence): 0.107
- busulfan calibrator concentration giving the same absorbance (antibody to busulfan; amide at 705 ng/mL, FIG. 3): 75 ng/mL
- busulfan calibrator concentration giving the same absorbance (antibody to busulfan; amide at 1410 ng/mL, FIG. 3): 150 ng/mL
- busulfan calibrator concentration giving the same absorbance (antibody to busulfan; amide at 2820 ng/mL, FIG. 3): 300 ng/mL
- busulfan calibrator concentration giving the same absorbance (antibody to busulfan; amide at 5640 ng/mL, FIG. 3): 600 ng/mL
- busulfan calibrator concentration giving the same absorbance (antibody to busulfan; amide at 11280 ng/mL, FIG. 3): 200 ng/mL
- busulfan calibrator concentration giving the same absorbance (antibody to busulfan; amide at 18800 ng/mL, FIG. 3): 2000 ng/mL
- cross-reactivity (antibody to busulfan; recovery compared to busulfan standard, 5000 ng/mL amide): 10.7%
- relative cross reactivity as compared to busulfan [2]: 17.5%

- half-life ([3]; aqueous solution, 37° C., aqueous solutions 100, 600, 1200 ng/ml): 14 h
- busulfan decomposed ([3]; room temperature for 5 days): more than 60%
Compound: CS(=O)(=O)OCCCCOS(C)(=O)=O [busulfan]
- decomposition of busulfan calibrator ([4]; 4° C., calibrator matrix spiked with busulfan): decomposes within a day
- busulfan decomposed ([4]; room temperature for 5 days): more than 60%

Compound: O=S1(=O)CCC(O)C1 (centres unmarked) [tetrahydrothiophene-3-ol-1,1-dioxide]
- reaction or binding of the busulfan antibodies with blocking metabolites [5]: do not substantially react with or bind to

Compound: C1CCSC1 [tetrahydrothiophene]
- reaction or binding of the busulfan antibodies with blocking metabolites [5]: do not substantially react with or bind to

Compound: O=S1(=O)CCCC1 [tetramethylene sulfone]
- reaction or binding of the busulfan antibodies with blocking metabolites [5]: do not substantially react with or bind to
